Reference: US20220160652A1, “USE OF VITAMIN K IN COMBINATION WITH ANTICOAGULANTS” (KAYDENCE PHARMA AS, priority 2019, published 2022)
“Also recorded” adds a separate entry of the source.

Assays:
[1] = test system: transgenic Ren-2 rats [TGR(mREN-2)27]; assay: T-TAS thrombus formation in whole blood of treated TGR (Ren-2) rats; format: in vivo, rat
Method: This experiment was conducted in order to evaluate the effects of vitamin K2 (MK-7) on the anticoagulant activity of the new oral anticoagulants (NOAC) rivaroxaban and dabigatran using the T-TAS Total Thrombus-formation Analysis System. The T-TAS Total Thrombus-formation Analysis System is a microchip-based flow chamber system capable of evaluating whole-blood thrombogenicity. It is a useful tool in monitoring the efficacy of anticoagulants on thrombus formation and predicting the risk of bleeding complications. […] Four days before the start of the treatment, the first part of animals' body weight and food intake was measured in selected representative three cages (rats n=9) to calculate the appropriate amount of tested compounds required for addition to the diet to obtain the dosing indicated in Table 1. […] The body mass of the rats was measured at the beginning and at the end of treatment. At the beginning and at the end of treatment, the food intake per day was measured in representative group of animals to monitor the daily dosing of tested compounds (per kg of body mass). The thrombus formation in vitro was measured in whole blood using a microchip-based flow chamber system according to manufacturers' protocol (Total Thrombus-formation Analyser System, T-TAS; Fujimori Kogyo Co., Ltd., Tokyo, Japan). […]

Sprague-Dawley rats = assay: T-TAS thrombus formation in whole blood of treated Sprague-Dawley rats; format: in vivo, rat
Method: This experiment was conducted in order to evaluate the effects of vitamin K2 (MK-7) on the anticoagulant activity of the new oral anticoagulants (NOAC) rivaroxaban and dabigatran using the T-TAS Total Thrombus-formation Analysis System. The T-TAS Total Thrombus-formation Analysis System is a microchip-based flow chamber system capable of evaluating whole-blood thrombogenicity. It is a useful tool in monitoring the efficacy of anticoagulants on thrombus formation and predicting the risk of bleeding complications. To perform the study, 45 wild-type male Sprague-Dawley and 45 transgenic male Ren-2 rats [TGR(mREN-2)27] at the age of 10-11 weeks at the beginning of the treatment period were purchased from animal facility IKEM-CEM Institute of Clinical and Experimental Medicine (Prague, Czech Republic). All animals in the experiment were housed in individually ventilated cages (2-3 rats per cage) and kept in the animal rooms of JCET at a relative humidity of 55±10%, a temperature of 22±2 ° C., and a light cycle of 7 AM to 7 PM. The rats had free access to food and water. After delivery, animals were randomly divided into 10 experimental groups (5 or 10 rats per group), as indicated below in Table 1. Four days before the start of the treatment, the first part of animals' body weight and food intake was measured in selected representative three cages (rats n=9) to calculate the appropriate amount of tested compounds required for addition to the diet to obtain the dosing indicated in Table 1. It was estimated that food intake was approximately 30 g of chow per rat per day. […] The body mass of the rats was measured at the beginning and at the end of treatment. At the beginning and at the end of treatment, the food intake per day was measured in representative group of animals to monitor the daily dosing of tested compounds (per kg of body mass). The thrombus formation in vitro was measured in whole blood using a microchip-based flow chamber system according to manufacturers' protocol (Total Thrombus-formation Analyser System, T-TAS; Fujimori Kogyo Co., Ltd., Tokyo, Japan). […]

VSMCs [2] = assay: Hypoxia (CoCl2) induced oxidative stress in VSMCs (DCFDA); format: cell-based
Method: This study was performed to determine whether intracellular oxidative stress in VSCMs is derived from mitochondrial dysfunction. To perform this study, VSMCs were incubated with cobalt chloride, a known stabilizer of HIF1a. Cobalt chloride binding to HIF1a prevents the degradation of HIF1a and thus results in a cellular hypoxia state. HIF1a has been implicated in cancer biology as well as a number of other pathophysiologies, specifically in areas of vascularization and angiogenesis, energy metabolism, cell survival, and tumor invasion. Under normal circumstances, after injury, HIF1a is degraded by the enzyme prolyl hydroxylase (PHD). The continued up-regulation of HIF1 a (mimicked by cobalt chloride) promotes tumor growth and metastasis through its role in initiating angiogenesis and regulating cellular metabolism to overcome hypoxia. Hypoxia promotes apoptosis in both normal and tumor cells. Additionally, hypoxia generates significant intracellular oxidative stress.
To perform the study, VSMCs (10,000 cells/well) were plated in a 96-well plate and left to adhere overnight. Next, the medium was changed to a medium supplemented with 50 μM CoCl2 for 19 hours. The next day, cells were washed and incubated for 1 hour with 20 μM DCFDA in the presence of a vehicle (solvent for CoCl2 and vitamin K2 (MK-7)/UQ10), 10 μM vitamin K2 (MK-7), or 10 μM UQ10 in medium. The medium was then changed to a medium supplemented with vehicle, vitamin K2 (MK-7)/UQ10, or CoCl2, and fluorescent was measured for 6 hours. Fluorescence intensity was normalized for cell count.

VSMCs [3] = assay: ATP increase, 24 h incubation (luminescence); format: cell-based; details: 10 μM, p=0.014 for MK-7
Method: This study was performed to determine if vitamin K2 (MK-7) affects ATP generation. ATP is generated via glycolysis in the cytoplasm and via both the Krebs-cycle and oxidative phosphorylation in the mitochondria. ATP generation via glycolysis delivers only 2 ATP, whereas ATP generation in the mitochondria generates some 32 ATP.
(§1) To perform this study, VSCMs (5000 cells/well) were plated in 96-well plates and left to adhere overnight. Next, cells were incubated for 24 hours with either vehicle, vitamin K2 (MK-7) (10 μM), or UQ10 (10 μM). Hoechst was added to correct for cell number (1 μg/mL). Next, ATP was measured using mammalian lysis buffer for 5 minutes after which 50 μL ATP substrate solution was added to the wells and incubated for 10 minutes in a dark environment. Finally, the medium was transferred to a white plate to measure luminescence

VSMCs [4] = assay: ATP increase, 48 h incubation with CoCl2 comparison (luminescence); format: cell-based; details: 10 μM, vs CoCl2 100 μM
Method: as §1, with “This study was performed to further investigate the origin of ATP production that is influenced by vitamin K2 (MK-7). To” for “To”, “for 48” for “for 24”, “vehicle, CoCl2 (100 μM),” for “vehicle,”, “5 minutes,” for “5 minutes”, “Finally,” for “Finally, the”, “measure luminescence.” for “measure luminescence”

VSMCs [5] = assay: Warfarin-induced oxidative stress in VSMCs, warfarin concentration series (DCFDA); format: cell-based; details: warfarin 10 to 100 μM, 6 hours
Method: It is known that the level of reactive oxygen species in cells can be measured by measuring the conversion of 2′,7′—dichlorofluorescein diacetate (DCFDA) to the fluorescent dye 2′,7′-dichlorofluorescein (DCF). The fluorescence generated by cells subjected to DCFDA is directly proportional to the amount of oxidized DCFDA to DCF.
In this study, vitamin K metabolism was blocked using the vitamin K-antagonist warfarin. The study was conducted to investigate whether interference with vitamin K metabolism would cause intracellular oxidative stress. To perform the study, VSMCs (10,000 cells/well) were plated in 96-well plates and left to adhere overnight. Next, cells were incubated for 1 hour with 20 μM DCFDA.
The medium was then changed to a medium supplemented with different concentrations of warfarin ranging from 10 to 100 μM, and fluorescence intensity was measured over 6 hours. Fluorescence was normalized for number of cells.

O=C(NC[C@H]1CN(c2ccc(N3CCOCC3=O)cc2)C(=O)O1)c1ccc(Cl)s1 [Rivaroxaban, rivaroxaban, reference compound]
thrombus formation [1]: also inhibited thrombus formation
thrombus formation (Sprague-Dawley rats): inhibited thrombus formation

COC1=C(OC)C(=O)C(C/C=C(\C)CC/C=C(\C)CC/C=C(\C)CC/C=C(\C)CC/C=C(\C)CC/C=C(\C)CC/C=C(\C)CC/C=C(\C)CC/C=C(\C)CCC=C(C)C)=C(C)C1=O [UQ10, reference compound]
hypoxia induced oxidative stress (counteraction) (VSMCs [2]; 10 μM, after 50 μM CoCl2 for 19 hours): This effect was not found
ATP production in VSMCs compared to the vehicle (VSMCs [3]): only vitamin K2 (MK-7) increased ATP production in VSMCs significantly
ATP levels compared to CoCl2 (VSMCs [4]): significant higher ATP levels

[Cl][Co][Cl] [CoCl2, cobalt chloride]
oxidative stress induced by cobalt chloride (VSMCs [2]; 50 μM CoCl2): induces increased oxidative stress

CC(=O)CC(c1ccccc1)c1c(O)c2ccccc2oc1=O (stereo not shown) [warfarin]
intracellular oxidative stress caused by warfarin (VSMCs [5]): did cause intracellular oxidative stress; also recorded: results in increased intracellular oxidative stress
